Holding throughout (assay): MIC, microdilution broth method (NCCLS)
Holding throughout (type): cell-based
In general terms: Dilution methods test growth across graded concentrations, often in twofold steps.

One assay concerns S. aureus ATCC29213. As to conditions: B: S. aureus ATCC29213, 35° C., 16-20 hours. In outline:
(§1)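 Cation-adjusted Mueller-Hinton broth held two-fold serial dilutions of each compound. Wells received about 5×10^4 CFU of test organism and were incubated at 35° C. for 16-20 hours.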

Another assay relates to E. coli OC2605. The following applies: A: E. coli OC2605, 35° C., 16-20 hours. In outline:
as §1

The subject of the next assay is E. faecalis ATCC29212. As to conditions: C: E. faecalis ATCC29212, 35° C., 16-20 hours. In outline: as §1
The test system of a further assay is S. pneumoniae ATCC49619. The following applies: D: S. pneumoniae ATCC49619, 35° C., 16-20 hours. The method in brief: as §1
The test system of another assay is H. influenzae ATCC49247. As to conditions: E: H. influenzae ATCC49247, 35° C., 16-20 hours. The method in brief:
as §1

We go through 16 molecules from patent US6613747B2, “6-O-carbamoyl ketolide antibacterials” (Ortho-McNeil Pharmaceutical, Inc., priority 2000, dated 2003).

SMILES strings stand for the structures. In brackets after ≈: the same amount, converted by molar mass. Some results are limits rather than exact numbers.

Turning to `CC[C@H]1OC(=O)[C@H](C)C(=O)[C@H](C)[C@@H](O[C@@H]2O[C@H](C)C[C@H](N(C)C)[C@H]2O)[C@](C)(OC(=O)NCCNCc2cccnc2)C[C@@H](C)C(=O)[C@H](C)[C@H]2NC(=O)O[C@@]21C` [Compound 116], the MIC in the assay on S. aureus ATCC29213 was 2 µg/mL (≈ 2.58 µM); against E. coli OC2605, more than 16 µg/mL; against E. faecalis ATCC29212, 1 µg/mL (≈ 1.29 µM); against S. pneumoniae ATCC49619, 0.12 µg/mL (≈ 0.155 µM); in the assay with H. influenzae ATCC49247, 8 µg/mL (≈ 10.3 µM).
The like results for `CC[C@H]1OC(=O)[C@H](C)C(=O)[C@H](C)[C@@H](O[C@@H]2O[C@H](C)C[C@H](N(C)C)[C@H]2O)[C@](C)(OC(=O)NCCN(C)Cc2ccc(-c3ncccn3)cc2)C[C@@H](C)C(=O)[C@H](C)[C@H]2NC(=O)O[C@@]21C` [Compound 117] were, in that order, 2 µg/mL (≈ 2.31 µM), more than 16 µg/mL, 0.5 µg/mL (≈ 0.577 µM), 0.06 µg/mL (≈ 0.0692 µM) and more than 16 µg/mL.
Take `CC[C@H]1OC(=O)[C@H](C)C(=O)[C@H](C)[C@@H](O[C@@H]2O[C@H](C)C[C@H](N(C)C)[C@H]2O)[C@](C)(OC(=O)NCCN(C)Cc2cccnc2)C[C@@H](C)C(=O)[C@H](C)[C@H]2NC(=O)O[C@@]21C` [Compound 118]: the MIC in the assay on S. aureus ATCC29213 is 8 µg/mL (≈ 10.1 µM); against E. coli OC2605 it was more than 16 µg/mL; against E. faecalis ATCC29212, 1 µg/mL (≈ 1.27 µM); in the assay on S. pneumoniae ATCC49619 it was 0.12 µg/mL (≈ 0.152 µM); with H. influenzae ATCC49247, 16 µg/mL (≈ 20.3 µM).
For `CC[C@H]1OC(=O)[C@H](C)C(=O)[C@H](C)[C@@H](O[C@@H]2O[C@H](C)C[C@H](N(C)C)[C@H]2O)[C@](C)(OC(=O)NCCN(C)Cc2cnc3ccccc3c2)C[C@@H](C)C(=O)[C@H](C)[C@H]2NC(=O)O[C@@]21C` [Compound 119], the MIC is 4 µg/mL (≈ 4.76 µM) against S. aureus ATCC29213; more than 16 µg/mL against E. coli OC2605; 0.25 µg/mL (≈ 0.298 µM) against E. faecalis ATCC29212; 0.06 µg/mL (≈ 0.0714 µM) with S. pneumoniae ATCC49619; 8 µg/mL (≈ 9.52 µM) against H. influenzae ATCC49247.
Regarding `CCC1OC(=O)C(C)(F)C(=O)C(C)C(OC2OC(C)CC(N(C)C)C2O)C(C)(OC(=O)NCC=Cc2ccc(-c3ncccn3)cc2)CC(C)C(=NO)C(C)C2NC(=O)OC12C` (centres unmarked) [Compound 123], the MIC stood at 0.25 µg/mL (≈ 0.288 µM) against S. aureus ATCC29213; 16 µg/mL (≈ 18.4 µM) in the assay on E. coli OC2605; 0.12 µg/mL (≈ 0.138 µM) in the assay with E. faecalis ATCC29212; 0.03 µg/mL (≈ 0.0345 µM) with S. pneumoniae ATCC49619; 4 µg/mL (≈ 4.6 µM) against H. influenzae ATCC49247.
For `CCC1OC(=O)C(C)(F)C(=O)C(C)C(OC2OC(C)CC(N(C)C)C2O)C(C)(OC(=O)NCC=Cc2cn(-c3ncccn3)cn2)CC(C)C(=NO)C(C)C2NC(=O)OC12C` (centres unmarked) [Compound 124], the MIC in the assay on S. aureus ATCC29213 was 0.25 µg/mL (≈ 0.291 µM); against E. coli OC2605 it was 16 µg/mL (≈ 18.6 µM); against E. faecalis ATCC29212, 0.12 µg/mL (≈ 0.14 µM); against S. pneumoniae ATCC49619 it was 0.03 µg/mL (≈ 0.0349 µM); against H. influenzae ATCC49247 it was 4 µg/mL (≈ 4.66 µM).
As to `CCC1OC(=O)C(C)(F)C(=O)C(C)C(OC2OC(C)CC(N(C)C)C2O)C(C)(OC(=O)NCC=Cc2ccc(-c3cccnn3)cc2)CC(C)C(=NO)C(C)C2NC(=O)OC12C` (centres unmarked) [Compound 125], the MIC in the assay with S. aureus ATCC29213 was determined as 0.5 µg/mL (≈ 0.575 µM); against E. coli OC2605, 16 µg/mL (≈ 18.4 µM); with E. faecalis ATCC29212, 0.25 µg/mL (≈ 0.288 µM); against S. pneumoniae ATCC49619 it was 0.06 µg/mL (≈ 0.069 µM); with H. influenzae ATCC49247, 2 µg/mL (≈ 2.3 µM).
For the molecule `CCC1OC(=O)C(C)(F)C(=O)C(C)C(OC2OC(C)CC(N(C)C)C2O)C(C)(OC(=O)NCC=Cc2cnc3ccccc3c2)CC(C)C(=NO)C(C)C2NC(=O)OC12C` (centres unmarked) [Compound 127], the MIC against S. aureus ATCC29213 was found to be 0.25 µg/mL (≈ 0.297 µM); in the assay on E. coli OC2605, 8 µg/mL (≈ 9.5 µM); with E. faecalis ATCC29212, 0.12 µg/mL (≈ 0.143 µM); in the assay with S. pneumoniae ATCC49619 it was 0.03 µg/mL (≈ 0.0356 µM); in the assay with H. influenzae ATCC49247 it was 2 µg/mL (≈ 2.38 µM).
As to `CCC1OC(=O)C(C)(F)C(=O)C(C)C(OC2OC(C)CC(N(C)C)C2O)C(C)(OC(=O)NCc2ccc(-c3ncccn3)cc2)CC(C)C(=NO)C(C)C2NC(=O)OC12C` (centres unmarked) [Compound 128], the MIC in the assay on S. aureus ATCC29213 is 4 µg/mL (≈ 4.75 µM); against E. coli OC2605, more than 16 µg/mL; in the assay on E. faecalis ATCC29212, 2 µg/mL (≈ 2.37 µM); with S. pneumoniae ATCC49619, 0.25 µg/mL (≈ 0.297 µM); with H. influenzae ATCC49247, 8 µg/mL (≈ 9.49 µM).
Regarding `CCC1OC(=O)C(C)(F)C(=O)C(C)C(OC2OC(C)CC(N(C)C)C2O)C(C)(OC(=O)NCC=Cc2ccccc2)CC(C)C(=NO)C(C)C2NC(=O)OC12C` (centres unmarked) [Compound 129], the MIC with S. aureus ATCC29213 was 0.25 µg/mL (≈ 0.316 µM); in the assay on E. coli OC2605 it was 8 µg/mL (≈ 10.1 µM); in the assay with E. faecalis ATCC29212 it was 0.12 µg/mL (≈ 0.152 µM); against S. pneumoniae ATCC49619, 0.03 µg/mL (≈ 0.0379 µM); in the assay with H. influenzae ATCC49247 it was 1 µg/mL (≈ 1.26 µM).
For the molecule `CCC1OC(=O)C(C)(F)C(=O)C(C)C(OC2OC(C)CC(N(C)C)C2O)C(C)(OC(=O)NCC=Cc2ccnc(Br)c2)CC(C)C(=NO)C(C)C2NC(=O)OC12C` (centres unmarked) [Compound 130], the MIC in the assay with S. aureus ATCC29213 was 0.25 µg/mL (≈ 0.287 µM); in the assay with E. coli OC2605, 8 µg/mL (≈ 9.19 µM); with E. faecalis ATCC29212 it was 0.12 µg/mL (≈ 0.138 µM); against S. pneumoniae ATCC49619, “≦0.015 μg/mL”; in the assay with H. influenzae ATCC49247, 0.5 µg/mL (≈ 0.574 µM).
For the molecule `CC[C@H]1OC(=O)[C@H](C)C(=O)[C@H](C)[C@@H](O[C@@H]2O[C@H](C)C[C@H](N(C)C)[C@H]2O)[C@](C)(OC(=O)NC/C=C/c2ccc(-c3ncccn3)cc2)C[C@@H](C)C(=NO)[C@H](C)[C@H]2NC(=O)O[C@@]21C` [Compound 133], the MIC in the assay with S. aureus ATCC29213 worked out at 0.25 µg/mL (≈ 0.294 µM); with E. coli OC2605, 16 µg/mL (≈ 18.8 µM); against E. faecalis ATCC29212, 0.25 µg/mL (≈ 0.294 µM); against S. pneumoniae ATCC49619, 0.03 µg/mL (≈ 0.0353 µM); against H. influenzae ATCC49247, 2 µg/mL (≈ 2.35 µM).
For `CCC1OC(=O)C(C)C(=NOC)C(C)C(OC2OC(C)CC(N(C)C)C2O)C(C)(OC(=O)NCC=Cc2ccc(-c3ncccn3)cc2)CC(C)C(=NOC)C(C)C2NC(=O)OC12C` (centres unmarked) [Compound 134], the MIC against S. aureus ATCC29213 is 2 µg/mL (≈ 2.24 µM); in the assay with E. coli OC2605, more than 16 µg/mL; in the assay on E. faecalis ATCC29212, 1 µg/mL (≈ 1.12 µM); against S. pneumoniae ATCC49619 it was 0.12 µg/mL (≈ 0.134 µM); against H. influenzae ATCC49247, more than 16 µg/mL.
`CC[C@H]1OC(=O)[C@H](C)C(=O)[C@H](C)[C@@H](O[C@@H]2O[C@H](C)C[C@H](N(C)C)[C@H]2O)[C@](C)(OC(=O)NCC2CC(c3ccc(-c4ncccn4)cc3)C2)C[C@@H](C)C(=O)[C@H](C)[C@H]2NC(=O)O[C@@]21C` (some centres unmarked) [Compound 135]: the MIC in the assay with S. aureus ATCC29213 was 4 µg/mL (≈ 4.63 µM); in the assay with E. coli OC2605, more than 16 µg/mL; in the assay with E. faecalis ATCC29212, 2 µg/mL (≈ 2.31 µM); with S. pneumoniae ATCC49619, 0.5 µg/mL (≈ 0.579 µM); in the assay with H. influenzae ATCC49247 it was more than 16 µg/mL.
For the molecule `CC[C@H]1OC(=O)[C@H](C)C(=O)[C@H](C)[C@@H](O[C@@H]2O[C@H](C)C[C@H](N(C)C)[C@H]2O)[C@](C)(OC(=O)N2CCC(c3ccccc3)CC2)C[C@@H](C)C(=O)[C@H](C)[C@H]2NC(=O)O[C@@]21C` [Compound 137], the MIC was 4 µg/mL (≈ 5.09 µM) against S. aureus ATCC29213; more than 16 µg/mL with E. coli OC2605; 1 µg/mL (≈ 1.27 µM) in the assay on E. faecalis ATCC29212; 0.25 µg/mL (≈ 0.318 µM) against S. pneumoniae ATCC49619; 8 µg/mL (≈ 10.2 µM) in the assay with H. influenzae ATCC49247.
With `CC[C@H]1OC(=O)[C@H](C)C(=O)[C@H](C)[C@@H](O[C@@H]2O[C@H](C)C[C@H](N(C)C)[C@H]2O)[C@](C)(OC(=O)N2Cc3ccccc3C2)C[C@@H](C)C(=O)[C@H](C)[C@H]2NC(=O)O[C@@]21C` [Compound 138], the MIC is 16 µg/mL (≈ 21.5 µM) with S. aureus ATCC29213; more than 16 µg/mL in the assay with E. coli OC2605; 2 µg/mL (≈ 2.69 µM) against E. faecalis ATCC29212; 0.5 µg/mL (≈ 0.672 µM) in the assay on S. pneumoniae ATCC49619; 8 µg/mL (≈ 10.8 µM) in the assay with H. influenzae ATCC49247.
